Measurements published in patent US6441006B2, “Pharmaceutical compositions and methods for use” (Targacept, Inc., priority 1998, dated 2002).
“And” between values parts separate entries of the source, which are not always exact repeats. Equal values may be shown once.

How the values were obtained:
CNS nicotinic receptors = target: T1, CNS nicotinic receptors (Rattus norvegicus, UniProt P09483+P12390); experiment: Binding to relevant receptor sites; details: calculated from IC50 values using the method of Cheng et al.
T1 construct: Ki
T1 sequence (P09483 31-630): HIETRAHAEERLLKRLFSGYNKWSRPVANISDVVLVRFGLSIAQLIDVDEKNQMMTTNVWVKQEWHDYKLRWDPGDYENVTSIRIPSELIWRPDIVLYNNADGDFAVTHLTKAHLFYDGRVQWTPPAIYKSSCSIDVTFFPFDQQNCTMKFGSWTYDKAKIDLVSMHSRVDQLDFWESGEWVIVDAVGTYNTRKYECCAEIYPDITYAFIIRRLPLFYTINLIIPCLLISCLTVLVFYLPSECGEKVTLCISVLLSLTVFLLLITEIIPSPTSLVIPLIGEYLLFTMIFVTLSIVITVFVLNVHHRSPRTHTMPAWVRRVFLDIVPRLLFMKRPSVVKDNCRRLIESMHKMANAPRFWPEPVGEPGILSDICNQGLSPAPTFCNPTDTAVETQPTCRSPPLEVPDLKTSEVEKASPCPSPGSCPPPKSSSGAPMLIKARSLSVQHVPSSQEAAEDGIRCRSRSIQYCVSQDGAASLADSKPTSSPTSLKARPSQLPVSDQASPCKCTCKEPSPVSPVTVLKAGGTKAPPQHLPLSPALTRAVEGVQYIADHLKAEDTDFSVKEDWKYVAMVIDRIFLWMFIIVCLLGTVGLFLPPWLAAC
T1 sequence (P12390 25-500): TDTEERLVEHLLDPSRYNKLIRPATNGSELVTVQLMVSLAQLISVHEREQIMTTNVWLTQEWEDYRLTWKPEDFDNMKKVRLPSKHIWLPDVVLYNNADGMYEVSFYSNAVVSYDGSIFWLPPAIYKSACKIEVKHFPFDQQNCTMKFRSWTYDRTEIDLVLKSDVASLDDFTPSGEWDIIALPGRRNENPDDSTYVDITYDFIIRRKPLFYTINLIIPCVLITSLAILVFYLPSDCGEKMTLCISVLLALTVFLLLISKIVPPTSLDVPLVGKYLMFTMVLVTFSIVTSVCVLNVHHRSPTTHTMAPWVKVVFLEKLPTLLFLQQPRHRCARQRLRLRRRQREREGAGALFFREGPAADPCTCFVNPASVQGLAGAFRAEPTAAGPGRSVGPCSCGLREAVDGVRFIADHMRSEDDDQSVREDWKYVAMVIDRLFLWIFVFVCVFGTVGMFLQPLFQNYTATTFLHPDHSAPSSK
Protocol: Binding of the compounds to relevant receptor sites was determined in accordance with the techniques described in U.S. Pat. No. 5,597,919 to Dull et al. Inhibition constants (Ki values), reported in nM, were calculated from the IC50 values using the method of Cheng et al., Biochem, Pharmacol. 22:3099 (1973).

Rat brain synaptosomes = experiment: Neurotransmitter release from brain synaptosomes; type: biochemical; details: in the presence of 10 µM of ligand; percentage of release obtained with 10 µM (S)-(-)-nicotine or 300 µM TMA
Protocol: Neurotransmitter release was measured using techniques similar to those previously published (Bencherif M, et al. JPET 279: 1413-1421, 1996).
Rat brain synaptosomes were prepared as follows: Female Sprague Dawley rats (100-200 g) were killed by decapitation after anesthesia with 70% CO2. Brains are dissected, and hippocampus, striatum, and thalamus isolated, and homogenized in 0.32 M sucrose containing 5 mM HEPES pH 7.4 using a glass/glass homogenizer. The tissue was then centrifuged for 1000×g for 10 minutes and the pellet discarded. The supernatant was centrifuged at 12000×g for 20 minutes. The resultant pellet was re-suspended in perfusion buffer (128 mM NaCl, 1.2 mM KH2PO4, 2.4 mM KCl, 3.2 mM CaCl2, 1.2 mM MgSO4, 25 mM HEPES, 1 mM Ascorbic acid, 0.01 mM pargyline HCl and 10 mM glucose pH 7.4) and centrifuged for 15 minutes at 25000×g. The final pellet was resuspended in perfusion buffer and placed in a water bath (37° C.) for 10 minutes. Radiolabeled neurotransmitter is added (30 L^3H DA, 20 L^3H NE, 10 L^3H glutamate) to achieve a final concentration of 100 nM, vortexed and placed in a water bath for additional 10 minutes. Tissue-loaded filters is placed onto 11-mm diameter Gelman A/E filters on an open-air support. After a 10-minute wash period, fractions are collected to establish the basal release and agonist applied in the perfusion stream. Further fractions were collected after agonist application to re-establish the baseline. The perfusate was collected directly into scintillation vials and released radioactivity was quantified using conventional liquid scintillation techniques. Release of neurotransmitter was determined in the presence of […] of various ligands and was expressedas a percentage of release obtained with a concentration of 10 M (S)-(−)-nicotine or 300 MTMA resulting in maximal effects.

[1] = system: ganglia-type nicotinic acetylcholine receptors; experiment: Interaction with ganglion receptors; type: cell-based; details: Emax, percentage of maximal activation induced by (S)-(-)-nicotine
Protocol: (§1) The determination of the interaction of the compounds with ganglionic receptors was carried out in accordance with the techniques described in U.S. Pat. No. 5,597,919 to Dull et al. The maximal activation for individual compounds (Emax) was determined as a percentage of the maximal activation induced by (S)-(−)-nicotine. Reported Emax values represent the amount released relative to (S)-(−)-nicotine on a percentage basis. […] Such preferable compounds have the capability to activate human CNS receptors without activating ganglia-type nicotinic acetylcholine receptors. Thus, there is provided a therapeutic window for utilization in the treatment of CNS disorders. […] The compounds begin to cause effects at ganglia only when employed in amounts of many times those required to activate dopamine release.
The determination of the interaction of the compounds with ganglionic receptors was carried out in accordance with the techniques described in U.S. Pat. No. 5,597,919 to Dull et al. The maximal activation for individual compounds (Emax) was determined as a percentage of the maximal activation induced by (S)-(−)-nicotine. Reported Emax values represent the amount released relative to (S)-(−)-nicotine on a percentage basis.

[2] = target: T2, muscle-type nicotinic acetylcholine receptors (Homo sapiens, UniProt P02708+P07510+Q07001); experiment: Interaction with muscle receptors; type: cell-based; details: Emax, percentage of maximal activation induced by (S)-(-)-nicotine
T2 construct: endogenous in cells; host or cells: TE671/RD (own knowledge of the cited US 5,597,919)
T2 sequence (P02708 21-457): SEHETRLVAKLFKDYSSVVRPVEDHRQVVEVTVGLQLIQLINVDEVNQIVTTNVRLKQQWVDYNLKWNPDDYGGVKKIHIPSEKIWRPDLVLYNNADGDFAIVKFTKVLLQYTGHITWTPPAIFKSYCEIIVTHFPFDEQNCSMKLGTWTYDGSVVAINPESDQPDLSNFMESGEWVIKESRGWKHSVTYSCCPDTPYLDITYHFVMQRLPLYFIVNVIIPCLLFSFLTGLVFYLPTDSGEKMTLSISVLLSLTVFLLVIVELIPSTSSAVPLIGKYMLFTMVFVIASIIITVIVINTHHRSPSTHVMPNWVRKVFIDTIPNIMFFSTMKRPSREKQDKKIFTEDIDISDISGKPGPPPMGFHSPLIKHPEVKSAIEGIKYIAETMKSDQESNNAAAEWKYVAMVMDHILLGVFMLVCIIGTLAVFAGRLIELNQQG
T2 sequence (P11230 24-501 partner): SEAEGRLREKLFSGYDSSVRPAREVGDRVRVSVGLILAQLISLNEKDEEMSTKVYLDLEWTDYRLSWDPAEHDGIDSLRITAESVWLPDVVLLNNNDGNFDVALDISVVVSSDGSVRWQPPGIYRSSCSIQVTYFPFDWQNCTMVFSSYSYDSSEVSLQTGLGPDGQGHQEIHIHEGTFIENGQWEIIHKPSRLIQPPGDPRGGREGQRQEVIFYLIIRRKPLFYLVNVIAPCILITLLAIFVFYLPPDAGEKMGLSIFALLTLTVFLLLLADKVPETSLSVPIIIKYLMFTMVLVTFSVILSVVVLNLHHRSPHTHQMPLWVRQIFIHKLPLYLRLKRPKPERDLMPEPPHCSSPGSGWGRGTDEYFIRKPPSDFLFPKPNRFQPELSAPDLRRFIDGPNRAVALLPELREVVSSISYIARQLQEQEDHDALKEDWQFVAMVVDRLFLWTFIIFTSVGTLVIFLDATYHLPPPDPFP
T2 sequence (Q07001 22-517): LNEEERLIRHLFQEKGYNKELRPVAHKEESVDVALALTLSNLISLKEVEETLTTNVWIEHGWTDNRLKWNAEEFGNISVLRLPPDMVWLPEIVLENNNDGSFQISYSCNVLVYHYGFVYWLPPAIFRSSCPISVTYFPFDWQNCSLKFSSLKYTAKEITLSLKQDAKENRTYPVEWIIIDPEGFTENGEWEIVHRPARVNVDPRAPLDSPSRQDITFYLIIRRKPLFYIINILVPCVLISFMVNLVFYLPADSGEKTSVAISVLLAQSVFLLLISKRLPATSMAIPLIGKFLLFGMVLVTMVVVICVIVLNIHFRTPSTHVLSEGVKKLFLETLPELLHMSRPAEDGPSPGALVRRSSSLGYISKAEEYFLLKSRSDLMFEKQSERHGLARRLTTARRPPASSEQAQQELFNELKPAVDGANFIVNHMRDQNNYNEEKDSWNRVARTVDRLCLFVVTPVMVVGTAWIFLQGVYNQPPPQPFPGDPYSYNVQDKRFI
T2 sequence (P07510 23-517): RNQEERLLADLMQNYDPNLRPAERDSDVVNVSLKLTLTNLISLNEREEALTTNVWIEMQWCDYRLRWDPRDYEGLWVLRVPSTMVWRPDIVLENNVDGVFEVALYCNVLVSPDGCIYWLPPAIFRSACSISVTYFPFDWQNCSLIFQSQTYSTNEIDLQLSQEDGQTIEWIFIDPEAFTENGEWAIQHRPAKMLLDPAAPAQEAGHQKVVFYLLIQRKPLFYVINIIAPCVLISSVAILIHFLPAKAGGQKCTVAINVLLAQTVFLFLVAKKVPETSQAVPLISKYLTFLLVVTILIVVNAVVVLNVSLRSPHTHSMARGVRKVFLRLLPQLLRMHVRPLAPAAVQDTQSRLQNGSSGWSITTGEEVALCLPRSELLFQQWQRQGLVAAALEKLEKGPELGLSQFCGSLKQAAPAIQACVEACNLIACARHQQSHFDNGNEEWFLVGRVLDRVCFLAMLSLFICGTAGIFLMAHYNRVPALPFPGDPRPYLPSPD
Protocol: as §1, with “muscle” for “ganglionic”, “muscle-type” for “ganglia-type”, “cause muscle” for “cause”, “effects” for “effects at ganglia”

“2-(3-Pyridyloxy)ethylamine Hemigalactarate [Example 7]” showed a Ki (CNS nicotinic receptors) of 1600 nM and a neurotransmitter release (Rat brain synaptosomes) of 30%.

With “3-(3-Aminopropoxy)phenylamine Hemigalactarate [Example 29]” the Ki (CNS nicotinic receptors) was 442 nM and the neurotransmitter release (Rat brain synaptosomes) was 14%.

In the case of “3-(3-Pyridyloxy)propylamine Hemigalactarate [Example 10]”, the “effect at ganglia sites” value [1] is reported as 0%, the neurotransmitter release (Rat brain synaptosomes) is reported as 0% and the “effect at muscle sites” value [2] is reported as 0%.

With “3-(5-Chloro-3-pyridyloxy)propylamine Hemigalactarate [Example 15]” the “effect at ganglia sites” value [1] was 4%, the Ki (CNS nicotinic receptors) was 46 nM and the neurotransmitter release (Rat brain synaptosomes) was 110%. The “effect at muscle sites” value [2] was 0%.

With “4-(3-Pyridyloxy)butylamine Hemigalactarate [Example 12]” the “effect at ganglia sites” value [1] was 11%, the Ki (CNS nicotinic receptors) was 232 nM and the neurotransmitter release (Rat brain synaptosomes) was 100%. For the same compound, the “effect at muscle sites” value [2] was 0%.

With CN(C)CCOc1cccnc1 [Example 9, Dimethyl(2-(3-pyridyloxy)ethylamine Hemigalactarate] the “effect at ganglia sites” value [1] was 0%, the neurotransmitter release (Rat brain synaptosomes) was 0% and the “effect at muscle sites” value [2] was 0%.

CC(C)NCCCOc1cccnc1 [Example 23, (Methylethyl)(3-(3-pyridyloxy)propyl)amine] showed a Ki (CNS nicotinic receptors) of 8500 nM and a neurotransmitter release (Rat brain synaptosomes) of 16%.

Compound c1ccc(CNCCCOc2cccnc2)cc1 [Example 24, Benzyl(3-(3-pyridyloxy)propyl)amine] has a neurotransmitter release (Rat brain synaptosomes) of 29%.

With Cl.Cl.c1cncc(OC2CCNCC2)c1 [Example 35, 3-(4-Piperidinyloxy)pyridine Dihydrochloride] the “effect at ganglia sites” value [1] was 9%, the melting point was 71 to 73.5 °C and the “effect at muscle sites” value [2] was 16%.

“(2-(5-Bromo(3-pyridylthio))ethyl)methylamine Hemigalactarate [Example 38]” gave a Ki (CNS nicotinic receptors) of 3400 nM.

With “(3-(3-Aminophenoxy)propyl)methylamine Hemigalactarate [Example 30]” the “effect at ganglia sites” value [1] was 5%, the Ki (CNS nicotinic receptors) was 64 nM and the neurotransmitter release (Rat brain synaptosomes) was 30% and 60%. For the same compound, the “effect at muscle sites” value [2] was 11%.

In the case of “(3-(5-Bromo(3-pyridyloxy))propyl)methylamine Hemigalactarate [Example 6]”, the Ki (CNS nicotinic receptors) is reported as 44 nM.

Compound “(3-(5-Chloro(3-pyridyloxy))-1-methylpropyl)methylamine Hemigalactarate [Example 27]” has a Ki (CNS nicotinic receptors) of 1600 nM and a neurotransmitter release (Rat brain synaptosomes) of 30%.

For “(3-(5-Chloro(3-pyridyloxy))propyl)methylamine Hemigalactarate [Example 16]”, the “effect at ganglia sites” value [1] was 7%, the Ki (CNS nicotinic receptors) was 11 nM and the neurotransmitter release (Rat brain synaptosomes) was 100%. The “effect at muscle sites” value [2] was 16%.

“(3-Benzo[3,4-d]1,3-dioxolan-5-yloxypropyl)methylamine Hemigalactarate [Example 34]” gave a Ki (CNS nicotinic receptors) of 16600 nM and a neurotransmitter release (Rat brain synaptosomes) of 41%.

With “Cyclopropyl(3-(3-pyridyloxy)propyl)amine Hemigalactarate [Example 25]” the “effect at ganglia sites” value [1] was 10%, the Ki (CNS nicotinic receptors) was 165 nM and the neurotransmitter release (Rat brain synaptosomes) was 51%. For the same compound, the “effect at muscle sites” value [2] was 9%.

With “Dimethyl(3-(3-(methylamino)propoxy)phenyl)amine Hemigalactarate [Example 31]” the Ki (CNS nicotinic receptors) was 10000 nM and the neurotransmitter release (Rat brain synaptosomes) was 16%.

In the case of “Dimethyl(3-(3-pyridyloxy)propyl)amine Hemigalactarate [Example 11]”, the “effect at ganglia sites” value [1] is reported as 5%, the Ki (CNS nicotinic receptors) is reported as 126 nM and the neurotransmitter release (Rat brain synaptosomes) is reported as 32%. The “effect at muscle sites” value [2] was 8%.

In the case of “Dimethyl(4-(3-pyridyloxy)butyl)amine Hemigalactarate [Example 14]”, the Ki (CNS nicotinic receptors) is reported as 3410 nM and the neurotransmitter release (Rat brain synaptosomes) is reported as 24%.

In the case of “Ethyl(3-(3-pyridyloxy)propyl)amine Hemigalactarate [Example 22]”, the “effect at ganglia sites” value [1] is reported as 13%, the Ki (CNS nicotinic receptors) is reported as 66 nM and the neurotransmitter release (Rat brain synaptosomes) is reported as 57%. The “effect at muscle sites” value [2] was 13%.

For “Methyl(1-methyl-3-(3-pyridyloxy)propyl)amine Hemigalactarate [Example 26]”, the “effect at ganglia sites” value [1] was 20%, the Ki (CNS nicotinic receptors) was 138 nM and the neurotransmitter release (Rat brain synaptosomes) was 49%. For the same compound, the “effect at muscle sites” value [2] was 16%.

In the case of “Methyl(2-(3-pyridyloxy)ethyl)amine Hemigalactarate [Example 8]”, the “effect at ganglia sites” value [1] is reported as 0%, the Ki (CNS nicotinic receptors) is reported as 65 nM and the neurotransmitter release (Rat brain synaptosomes) is reported as 143%. The “effect at muscle sites” value [2] was 0%.

For “Methyl(3-(2-methyl(3-pyridyloxy))propyl)amine Hemigalactarate [Example 21]”, the “effect at ganglia sites” value [1] was 15%, the Ki (CNS nicotinic receptors) was 236 nM and the neurotransmitter release (Rat brain synaptosomes) was 69%. The “effect at muscle sites” value [2] was 0%.

For “Methyl(3-(3-nitrophenoxy)propyl)amine Hemigalactarate [Example 28]”, the “effect at ganglia sites” value [1] was 9%, the Ki (CNS nicotinic receptors) was 392 nM and the neurotransmitter release (Rat brain synaptosomes) was 67%. For the same compound, the “effect at muscle sites” value [2] was 10%.

For “Methyl(3-(5-(phenylmethoxy)(3-pyridyloxy))propyl)amine Hemigalactarate [Example 19]”, the “effect at ganglia sites” value [1] was 3%, the Ki (CNS nicotinic receptors) was 2 nM and the neurotransmitter release (Rat brain synaptosomes) was 38%. For the same compound, the “effect at muscle sites” value [2] was 1%.

In the case of “Methyl(3-(5-isopropoxy-3-pyridyloxy)propyl)amine Monogalactarate [Example 18]”, the “effect at ganglia sites” value [1] is reported as 0%, the Ki (CNS nicotinic receptors) is reported as 21 nM and the neurotransmitter release (Rat brain synaptosomes) is reported as 36%. For the same compound, the “effect at muscle sites” value [2] was 22%.

In the case of “Methyl(3-(5-methoxy-3-pyridyloxy)propyl)amine Hemigalactarate [Example 17]”, the “effect at ganglia sites” value [1] is reported as 5%, the Ki (CNS nicotinic receptors) is reported as 15 nM and the neurotransmitter release (Rat brain synaptosomes) is reported as 54%. The “effect at muscle sites” value [2] was 10%.

For “Methyl(3-(6-methyl(3-pyridyloxy))propyl)amine Hemigalactarate [Example 20]”, the Ki (CNS nicotinic receptors) was 12 nM, the neurotransmitter release (Rat brain synaptosomes) was 77% and the “effect at muscle sites” value [2] was 0%.

Work on “Methyl(3-tricyclo[7.3.1.0<5,13>]tridec-2-yloxypropyl)amine Hemigalactarate [Example 32]” yielded a Ki (CNS nicotinic receptors) of 100000 nM.

“Methyl(4-(3-pyridyloxy)butyl)amine Hemigalactarate [Example 13]” gave a Ki (CNS nicotinic receptors) of 5520 nM and a neurotransmitter release (Rat brain synaptosomes) of 56%.
